Measurements: patent US7393865B2, “Sleep inducing compounds and methods relating thereto” (Neurocrine Biosciences, Inc., priority 2004, dated 2008)

Molecular target: T1, human H1 receptor (Homo sapiens, UniProt P35367)
T1 construct: expressed in transfected cells; host or cells: CHO cells (crude membranes)
Assay: Human histamine H1 receptor binding assay
Conditions: competition with 1.5 nM [pyridinyl-5-3H] Pyrilamine, crude membranes of CHO cells transfected with human H1 receptor; Ki from IC50 by Cheng-Prusoff
Protocol: Compounds of the present invention may be evaluated for binding to the histamine H1 receptor by a standard binding assay. […] Pyrilamine (˜30 Ci/mmol, Amersham TRK608) in the presence of varying concentrations of competing ligand. Non-specific binding is determined in the presence of excess (1 μM) doxepin. Bound and free ligand are separated by rapid vacuum filtration using a Packard 96-well cell harvester onto UniFilter GF/C filter plates (PerkinElmer) that has been pretreated with 1% polyethyleneimine. The filter plates are then washed with 600 μl phosphate buffered saline containing 0.01% (v/v) Triton-X100. Bound radioligand is determined by scintillation counting using a TopCount-NXT (Packard). Binding data is analyzed by nonlinear, least-squares curve fitting algorithms using GraphPad Prism (GraphPad Software, Inc. San Diego, Calif.) or ActivityBase (IDBS, Guildford, Surrey, UK).

T1 sequence (P35367 whole entry): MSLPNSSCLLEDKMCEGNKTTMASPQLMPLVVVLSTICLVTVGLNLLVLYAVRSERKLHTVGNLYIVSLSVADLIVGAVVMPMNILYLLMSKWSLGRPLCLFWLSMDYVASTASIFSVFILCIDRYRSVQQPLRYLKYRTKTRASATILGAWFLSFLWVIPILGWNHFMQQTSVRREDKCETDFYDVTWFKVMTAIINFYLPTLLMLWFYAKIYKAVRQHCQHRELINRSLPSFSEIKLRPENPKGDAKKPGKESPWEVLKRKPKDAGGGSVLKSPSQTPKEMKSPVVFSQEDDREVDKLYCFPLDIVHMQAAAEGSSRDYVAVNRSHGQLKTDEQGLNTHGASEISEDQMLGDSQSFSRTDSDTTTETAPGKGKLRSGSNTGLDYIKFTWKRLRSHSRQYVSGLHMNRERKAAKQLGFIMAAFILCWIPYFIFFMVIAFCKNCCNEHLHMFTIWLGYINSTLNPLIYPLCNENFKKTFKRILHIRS

Row | Structure (SMILES) | Ki [nM]
1 | C[C@H](c1ccc(F)cn1)c1c(CCN(C)C)sc2ccccc12 [Compound 7-5, (2-{3-[(S)-1-(5-Fluoro-pyridin-2-yl)-ethyl]-benzo[b]thiophen-2-yl}-ethyl)-dimethyl-amine] | ≤ 1000
2 | CN(C)CCc1sc2ccccc2c1Cc1nccs1 [Compound 13-5, Dimethyl-[2-(3-thiazol-2-ylmethyl-benzo[b]thiophen-2-yl)-ethyl]-amine] | ≤ 1000
3 | CN(C)CCc1sc2ccccc2c1Cc1ccc(F)cc1 [Compound 3-2, {2-[3-(4-Fluoro-benzyl)-benzo[b]thiophen-2-yl]-ethyl}-dimethyl-amine] | ≤ 1000
4 | COc1ncccc1[C@@H](C)c1c(CCN(C)C)sc2ccccc12 [Compound 15-5, Dimethyl-(2-{3-[(R)-1-(2-methoxy-pyridin-3-yl)-ethyl]-benzo[b]thiophen-2-yl}-ethyl)-amine] | ≤ 1000
5 | Cc1cc(Cc2c(CCN(C)C)sc3ccccc23)n(C)n1 [Compound 13-13, {2-[3-(2,5-Dimethyl-2H-pyrazol-3-ylmethyl)-benzo[b]thiophen-2-yl]-ethyl}-dimethyl-amine] | ≤ 1000
6 | COc1cccc(C(C)c2c(CCN(C)C)sc3ccccc23)n1 (centres unmarked) [Compound 15-2, (2-{3-[1-(6-Methoxy-pyridin-2-yl)-ethyl]-benzo[b]thiophen-2-yl}-ethyl)-dimethyl-amine] | ≤ 1000
7 | CN(C)CCc1sc2ccccc2c1Cc1cscn1 [Compound 13-6, Dimethyl-[2-(3-thiazol-4-ylmethyl-benzo[b]thiophen-2-yl)-ethyl]-amine] | ≤ 1000
8 | CC(c1ccc(F)cn1)c1c(CCN(C)C)sc2ccccc12 (centres unmarked) [Compound 7-3, (2-{3-[1-(5-Fluoro-pyridin-2-yl)-ethyl]-benzo[b]thiophen-2-yl}-ethyl)-dimethyl-amine] | ≤ 1000
9 | CN(C)CCc1sc2ccccc2c1Cc1cccc(O)n1 [Compound 13-8, 6-[2-(2-Dimethylamino-ethyl)-benzo[b]thiophen-3-ylmethyl]-pyridin-2-ol] | ≤ 1000
10 | C=C(c1ccccn1)c1c(CCN(C)C)sc2cc(C)ccc12 [Compound 4-6, Dimethyl-{2-[6-methyl-3-(1-pyridin-2-yl-vinyl)-benzo[b]thiophen-2-yl]-ethyl}-amine] | ≤ 1000
11 | CC(c1cccc(F)n1)c1c(CCN(C)C)sc2ccccc12 (centres unmarked) [Compound 15-3] | ≤ 1000
12 | CC(c1ccc(F)cc1)c1c(CCN(C)C)sc2ccccc12 (centres unmarked) [Compound 3-4, (2-{3-[1-(4-Fluoro-phenyl)-ethyl]-benzo[b]thiophen-2-yl}-ethyl)-dimethyl-amine] | ≤ 1000
13 | Cc1ccc2c(C(C)c3ccccn3)c(CCN(C)C)sc2c1 (centres unmarked) [Compound 4-2, Dimethyl-{2-[6-methyl-3-(1-pyridin-2-yl-ethyl)-benzo[b]thiophen-2-yl]-ethyl}-amine] | ≤ 1000
14 | C[C@@H](c1cccnc1F)c1c(CCN(C)C)sc2ccccc12 [Compound 15-9, Dimethyl-(2-{3-[(S)-1-(2-fluoro-pyridin-3-yl)-ethyl]-benzo[b]thiophen-2-yl}-ethyl)-amine] | ≤ 1000
15 | CC(c1ccncc1)c1c(CCN(C)C)sc2ccccc12 (centres unmarked) [Compound 6-7, Dimethyl-{2-[3-(1-pyridin-4-yl-ethyl)-benzo[b]thiophen-2-yl]-ethyl}-amine] | ≤ 1000
16 | Cc1ccnc(C(C)c2c(CCN(C)C)sc3ccccc23)c1 (centres unmarked) [Compound 5-3, Dimethyl-(2-{3-[1-(4-methyl-pyridin-2-yl)-ethyl]-benzo[b]thiophen-2-yl}-ethyl)-amine] | ≤ 1000

Continued, values first:

Row | Ki [nM] | Structure (SMILES)
17 | ≤ 1000 | C[C@@H](c1ccccn1)c1c(CCN2CCCC2)sc2ccccc12 [Compound 20-3, 2-{(R)-1-[2-(2-Pyrrolidin-1-yl-ethyl)-benzo[b]thiophen-3-yl]-ethyl}-pyridine]
18 | ≤ 1000 | CC(c1ccccn1)c1c(CCN2CCC(O)C2)sc2ccccc12 (centres unmarked) [Compound 20-6, 1-{2-[3-(1-Pyridin-2-yl-ethyl)-benzo[b]thiophen-2-yl]-ethyl}-pyrrolidin-3-ol]
19 | ≤ 1000 | CC(c1cscn1)c1c(CCN(C)C)sc2ccccc12 (stereo in doubt) [Compound 16-4, Dimethyl-{2-[3-((R)-1-thiazol-4-yl-ethyl)-benzo[b]thiophen-2-yl]-ethyl}-amine]
20 | ≤ 1000 | C[C@@H](c1cscn1)c1c(CCN2CCCC2)sc2ccccc12 [Compound 19-5, 4-{(R)-1-[2-(2-Pyrrolidin-1-yl-ethyl)-benzo[b]thiophen-3-yl]-ethyl}-thiazole]
21 | ≤ 1000 | CC(c1cscn1)c1c(CCN(C)C)sc2ccccc12 (centres unmarked) [Compound 16-2, Dimethyl-{2-[3-(1-thiazol-4-yl-ethyl)-benzo[b]thiophen-2-yl]-ethyl}-amine]
22 | ≤ 1000 | CC(c1cccnc1Cl)c1c(CCN(C)C)sc2ccccc12 (centres unmarked) [Compound 25-4, (2-{3-[1-(2-Chloro-pyridin-3-yl)-ethyl]-benzo[b]thiophen-2-yl}-ethyl)-dimethyl-amine]
23 | ≤ 1000 | CC(c1ccccn1)c1c(CCN2CCCC2)sc2ccccc12 (centres unmarked) [Compound 20-1, 2-{1-[2-(2-Pyrrolidin-1-yl-ethyl)-benzo[b]thiophen-3-yl]-ethyl}-pyridine]
